Measurements: publication PMC3836906 (Cancer chemotherapy and pharmacology, 2013)
Several values for one entry are separate records, joined by “and”; a condition that tells them apart may be missing. Equal values may be shown once. Read-outs that look alike come from different tables or passages of the source. Blank lines part the entries; values can stand above or below the compound they belong to.

Key:
[1] = mouse, in vivo
liver ALDH = settings: mouse, in vivo, ip, 300 mg/kg; cited from earlier work
mice [2] = settings: mouse, in vivo
ALDH1B1 = settings: cited from earlier work
RBC ALDH = settings: mouse, in vivo, ip, 300 mg/kg; cited from earlier work
[3] = test system: human RXF-393 renal carcinoma cell xenografts; settings: mouse, in vivo; cited from earlier work
mice [4] = settings: mouse, in vivo; remark: listed apart in the source
in vivo [5] = settings: CD2F1, mouse, iv, 20 mg/kg
cell cycle = settings: cited from earlier work
[6] = test system: human 786-0 renal cell tumors; settings: mouse, in vivo; cited from earlier work
in vivo [7] = settings: CD2F1, mouse, iv, 20 mg/kg; remark: listed apart in the source
[8] = in vivo
renal carcinoma cells = settings: cited from earlier work
[9] = test system: human ACHN renal cell tumors; settings: mouse, in vivo; cited from earlier work
[10] = test system: A498 human renal cell cancer xenografts; settings: in vivo; cited from earlier work

SMILES: CCN(CC)C(=S)SSC(=S)N(CC)CC [disulfiram, Tetraethylthiuram disulfide]
Body weight loss [1]: approximately 12%
Reduction of ALDH activity in liver compared to controls (liver ALDH): 27%
Hepatic pathology (mice [2]): mild hepatic lesions
Sensitivity of ALDH1B1 to inhibition (ALDH1B1): insensitive to inhibition
Reduction of ALDH activity in RBC compared to controls (RBC ALDH): 81%

SMILES: Cc1cc(N(CCOS(C)(=O)=O)CCOS(C)(=O)=O)ccc1C=O [BEN, 4-[bis[2-[(methylsulfonyl)-oxy]ethyl]amino]-2-methyl-benzaldehyde]
Cure rate [3]: > 70%
Day after dosing by which blood values returned to normal (mice [4]): ≤ 14 days
Effect of disulfiram pretreatment on percentage lymphocytes nadir (mice [4]): appeared to deepen
Hematocrits, white blood cells and percent lymphocytes following treatment (mice [4]): decreased
Body weight loss [1]: approximately 12%
CL renal (in vivo [5]): 0.4 mL/min
Cell cycle effect (cell cycle): S and G2/M cell cycle arrest
Anti-tumor activity [6]: significant activity
Tmax (in vivo [7]; in vivo): 5 min
Increase of BEN plasma exposure by disulfiram pretreatment ([8]; CD2F1, mouse): 368 fold
Time after administration at which analyte became undetectable in plasma ([8]; CD2F1, mouse): 15 min
Cl/F ([8]; CD2F1, mouse, iv, 20 mg/kg): 0.18 mL/min/kg
Tmax ([8]; CD2F1, mouse, iv, 20 mg/kg): 5 min
Vd/F ([8]; CD2F1, mouse, iv, 20 mg/kg): 120 L/kg
Activity in NCI 60 cell line screen (renal carcinoma cells): specific activity
Anti-tumor activity [9]: significant activity
Effect on xenograft growth [10]: slowed the growth

Tmax (in vivo [7]; plasma): 10 min
half-life (in vivo [7]; plasma, Half-life, BEN 20 mg/kg iv alone): 29 min
Cl/F ([8]; mouse): 1.90 mL/min/kg and 1.20 mL/min/kg
Tmax ([8]; mouse): 10 min
Vd/F ([8]; mouse): 83 L/kg and 60 L/kg
SMILES: Cc1cc(N(CCO)CCO)ccc1C(=O)O [BA-(OH)2, 4-[bis[2-hydroxy-ethyl]amino]-2-methyl-benzoic acid]

SMILES: CS(=O)(=O)OCCCCOS(C)(=O)=O [busulfan, reference compound]
Anti-tumor activity [3]: no activity
